Reference: patent EP4768499A1, “MACROCYCLIC PEPTIDE COMPOUND HAVING CELL MEMBRANE PERMEABILITY AND METABOLIC STABILITY, AND LIBRARY CONTAINING SAME” (Chugai Seiyaku Kabushiki Kaisha, priority 2023, dated 2025)
Starred links: 1 amine or outer side, 2 acyl side, 3 side chain; linkers in the order of their positions; H or OH if unused. Positions of bridges follow the written chain, without caps; N, C: chain ends. Non-standard residues stand in square brackets, D forms with d. Residues, ends and D or L forms follow the SMILES beside them. *: point of attachment. NMeF = CN[C@@H](Cc1ccccc1)C(=O)O; NMeGABA = CN(CCCC(=O)[*:2])[*:1]; NMeI = CC[C@H](C)[C@H](NC)C(=O)O; hPhe = N[C@@H](CCc1ccccc1)C(=O)O; NMeβAla = CN(CCC(=O)[*:2])[*:1]; NMeD = CN[C@@H](CC(=O)O)C(=O)O; NMeL = CN[C@@H](CC(C)C)C(=O)O; NMeV = CN[C@H](C(=O)O)C(C)C; d(β3hA) = C[C@@H](N)CC(=O)O; NMeA = CN[C@@H](C)C(=O)O; Piperidide = C1CCN(*)CC1; Abu = CC[C@H](N)C(=O)O; Sar = CNCC(=O)O; tBu = CC(C)(C)*

Legend:
[1] = Metabolic stability test: liver microsomal stability assay; assay type: in vitro ADME, mouse; details: mouse liver microsomes 0.5 mg protein/mL, compound 1 µM; for microsomal CLint at 1 µM: male, pH 7.4, presence of NADPH, read-out: Mouse Hepatic Microsome CLh,int NADPH(+); for Mouse Hepatic Microsome CLh,int NADPH(-): absence of NADPH
Procedure: Under the presence and absence of NADPH, a microsome solution prepared to a concentration of 0.5 mg protein/mL using 100 mM phosphate buffer (pH 7.4) with mouse liver microsomes (male, Corning Incorporated, USA) and the compound at a concentration of 1 µM were subjected to a metabolic reaction for 22 minutes, 44 minutes, or 66 minutes. Protein removal processing was performed over time using acetonitrile, and the remaining amount of unchanged compound was analyzed using LCMS to calculate the intrinsic hepatic clearance (CLh, int) (Table 6).

Caco-2 cells = assay: Membrane permeability test using Caco-2 cells with preincubation; assay type: in vitro ADME; details: preincubation 20 to 24 hours; for Caco2 Papp (10^-6 cm/sec): Caco-2 cells, apical FaSSIF/HBSS 1% DMSO pH 6.0, basal HBSS 4% BSA pH 7.4, basal sample at 180 minutes; for Caco2 Papp: Apical FaSSIF/HBSS pH 6.0, Basal HBSS 4% BSA pH 7.4, 180 minutes
Procedure: The permeability coefficient (Caco-2 Papp (cm/sec)) is calculated using a numerical expression 1. [Expression 1] Papp = (1)/(C1 (0) × S) × (dQ)/(dt) [formula] dQ/dt represents the permeation rate of drug (the amount of drug appearing on the Basal side per unit time), S represents the total surface area of cells, and C1(0) represents the concentration of drug added on the Apical side.
Using a mixed medium of FaSSIF containing 1% DMSO and DMEM as the apical medium, and DMEM as the basal medium, Caco-2 cells and peptide compounds are preincubated for 20 to 24 hours under conditions of 5% CO2, 37°C, and 80 rpm. Afterward, the culture medium on the Apical side and the Basal side are aspirated and washed, the peptide compound was added to a FaSSIF/HBSS buffer solution containing 1% DMSO (1% DMSO) (pH 6.0) at the Apical side, a HBSS buffer solution containing 4% BSA (pH 7.4) was added to the Basal side, and measurement of membrane permeability is started. Each well is shaken under 5% CO2 at 37°C and 80 rpm, and at 180 minutes after the start of shaking, a sample on the Basal side is collected. The amount of peptide compounds in the sample was measured using LCMS, and the membrane permeability coefficient was calculated from the permeation amount (Table 7). When calculating the membrane permeability coefficient (Papp) from the permeation amount, the following expression can be used. Papp = (dQ)/(dt) × (1)/(C1 (0) × S) [formula]
dQ/dt represents the permeation rate of drug (the amount of drug appearing on the Basal side per unit time), C1(0) represents the concentration of drug added on the Apical side, and S represents the total surface area of cells.

SMILES | microsomal CLint at 1 µM [1] | Mouse Hepatic Microsome CLh,int NADPH(-) [1] | Caco2 Papp (10^-6 cm/sec) (Caco-2 cells) | Caco2 Papp (Caco-2 cells)
CC[C@@H]1NC(=O)[C@H](CC(C)C)N(C)C(=O)[C@H](COC(C)(C)C)NC(=O)[C@H](Cc2ccccc2)N(C)C(=O)[C@H](CC)NC(=O)[C@H](Cc2ccccc2)N(C)C(=O)[C@H](C)N(C)C(=O)[C@H](CC(C)C)N(C)C(=O)[C@H](CC(C)C)NC(=O)CCCN(C)C(=O)C[C@@H](C(=O)N2CCCCC2)NC(=O)[C@H](CC(C)C)N(C)C(=O)[C@H](C(C)C)NC(=O)[C@H](C)N(C)C1=O [pd016] ([NMeGABA]L[NMeL][NMeA][NMeF][Abu][NMeF]S(tBu)[NMeL][Abu][NMeA]V[NMeL]D-Piperidide; lactam N-14) | 49.9 µL/min/mg | 32.9 µL/min/mg Protein | 0.47 10^-6 cm/sec | 0.47 10^-6 cm/sec
CC[C@@H]1NC(=O)CCN(C)C(=O)C[C@@H](C)NC(=O)[C@H](CC(C)C)N(C)C(=O)[C@H]([C@@H](C)O)NC(=O)[C@H](C)N(C)C(=O)[C@H]([C@@H](C)CC)NC(=O)[C@H](CCc2ccccc2)NC(=O)[C@H](CC(C)C)N(C)C(=O)[C@H](C)N(C)C(=O)[C@H](Cc2ccccc2)N(C)C(=O)[C@@H]2CCCN2C(=O)[C@H]([C@@H](C)CC)NC(=O)[C@H](CC(C)C)N(C)C1=O [pd051] (cyclo([Abu][NMeL]IP[NMeF][NMeA][NMeL][hPhe]I[NMeA]T[NMeL][d(β3hA)][NMeβAla])) | 24.6 µL/min/mg | 28.8 µL/min/mg Protein | 0.21 10^-6 cm/sec | 0.21 10^-6 cm/sec
CC[C@H](C)[C@H]1C(=O)N[C@@H](CC(C)C)C(=O)N(C)[C@@H](CC(C)C)C(=O)N(C)[C@@H](C(C)C)C(=O)N(C)[C@@H](C)C(=O)N[C@@H]([C@@H](C)O)C(=O)N(C)[C@@H](CC(C)C)C(=O)N[C@H](C)CC(=O)N(C)CCC(=O)N[C@@H](CCc2ccccc2)C(=O)N(C)[C@@H](CC(C)C)C(=O)N2CCC[C@H]2C(=O)N(C)[C@@H](Cc2ccccc2)C(=O)N(C)[C@@H](C)C(=O)N1C [pd060] (cyclo(L[NMeL][NMeV][NMeA]T[NMeL][d(β3hA)][NMeβAla][hPhe][NMeL]P[NMeF][NMeA][NMeI])) | 32.4 µL/min/mg | 38.6 µL/min/mg Protein | 0.63 10^-6 cm/sec | 0.63 10^-6 cm/sec
CC[C@H](C)[C@@H]1NC(=O)[C@H]([C@@H](C)CC)N(C)C(=O)[C@@H](C)NC(=O)C[C@@H](C(=O)N2CCCCC2)N(C)C(=O)[C@H](C(C)C)NC(=O)[C@H](Cc2ccccc2)N(C)C(=O)[C@H](C(C)C)NC(=O)[C@H](CC(C)C)N(C)C(=O)[C@H](C)NC(=O)CN(C)C(=O)[C@H](CC(C)C)N(C)C(=O)[C@H](C(C)C)NC(=O)[C@H](C)N(C)C(=O)[C@H](Cc2ccccc2)N(C)C1=O [pd074] ([dA][NMeI]I[NMeF][NMeA]V[NMeL][Sar]A[NMeL]V[NMeF]V[NMeD]-Piperidide; lactam N-14) | 26.9 µL/min/mg | 26.9 µL/min/mg Protein | 0.22 10^-6 cm/sec | 0.22 10^-6 cm/sec
CC[C@@H]1NC(=O)[C@H](CC(C)C)N(C)C(=O)[C@H](C)NC(=O)CN(C)C(=O)[C@H](CC(C)C)N(C)C(=O)CCN(C)C(=O)[C@H](Cc2ccccc2)N(C)C(=O)[C@H]([C@@H](C)CC)NC(=O)[C@H]([C@@H](C)CC)N(C)C(=O)[C@@H](C)NC(=O)C[C@@H](C(=O)N2CCCCC2)N(C)C(=O)[C@H](Cc2ccccc2)N(C)C(=O)[C@H](C(C)C)NC(=O)[C@H](C)N(C)C1=O [pd076] ([dA][NMeI]I[NMeF][NMeβAla][NMeL][Sar]A[NMeL][Abu][NMeA]V[NMeF][NMeD]-Piperidide; lactam N-14) | 10.9 µL/min/mg | 18.2 µL/min/mg Protein | <0.10 10^-6 cm/sec | <0.10 10^-6 cm/sec
